Data: patent US10105357B2, “Indication of antibiotic drugs for preparation of cancer inhibition pharmaceutical composition” (LAUNX BIOMEDICAL CO., LTD., priority 2014, dated 2018)
Structures can show the parent of a compound that is named as a salt. Where two headings read alike, the source gives them in different places.

Experiments:
[1] = test system: Hep3B (hepatocellular carcinoma); test: Cell viability analysis, hepatic cancer Hep3B; type: cell-based, human; conditions: Homo sapiens, Hep3B, 72 h, read-out: The results of antibiotic drug inhibiting cancer cell lines (cell viability analysis), Hep3B
[2] = test system: MCF7 (Mammary Gland, Adenocarcinoma); test: Cell viability analysis, breast cancer MCF7; type: cell-based, human; conditions: Homo sapiens, MCF7, 72 h
AsPC-1 = test: Cell viability analysis, pancreatic cancer AsPC-1; type: cell-based, human; conditions: Homo sapiens, ASPC1, 72 h, read-out: The results of antibiotic drug inhibiting cancer cell lines (cell viability analysis), AsPC-1
TOV-21G = test: Cell viability analysis, ovarian cancer TOV-21G; type: cell-based, human; conditions: Homo sapiens, TOV21G, 72 h, read-out: The results of antibiotic drug inhibiting cancer cell lines (cell viability analysis), TOV-21G
T24 = test: Cell viability analysis, bladder cancer T24; type: cell-based, human; conditions: Homo sapiens, T-24, 72 h, read-out: The results of antibiotic drug inhibiting cancer cell lines (cell viability analysis), T24
U-2OS = test: Cell viability analysis, osteosarcoma U-2OS; type: cell-based, human; conditions: Homo sapiens, U2OS, 72 h, read-out: The results of antibiotic drug inhibiting cancer cell lines (cell viability analysis), U2OS
[3] = test system: HepG2 (Hepatocellular Carcinoma); test: Cell viability analysis, hepatic cancer HepG2; type: cell-based, human; conditions: Homo sapiens, HepG2, 72 h
[4] = test system: TSGH-8301 (Urinary Bladder Carcinoma); test: Cell viability analysis, bladder cancer TSGH-8301; type: cell-based, human; conditions: Homo sapiens, 72 h
[5] = test system: BCC (basal cell carcinoma); test: Cell viability analysis, skin cancer BCC; type: cell-based, human; conditions: Homo sapiens, 72 h, read-out: The results of antibiotic drug inhibiting cancer cell lines (cell viability analysis), BCC
[6] = test system: A375 (Amelanotic Melanoma); test: Cell viability analysis, skin cancer A375; type: cell-based, human; conditions: Homo sapiens, A-375, 72 h, read-out: cell viability (survival rate), A375, drug 10 μM, 72 hours, WST-1, OD450 nm
[7] = test system: PC3 (p53−) (Prostate Adenocarcinoma); test: Cell viability analysis, prostate cancer PC3; type: cell-based, human; conditions: Homo sapiens, 72 h
[8] = test system: AGS (Gastric Adenocarcinoma); test: Cell viability analysis, gastric cancer AGS; type: cell-based, human; conditions: Homo sapiens, 72 h
[9] = test system: SAS (Tongue squamous cell carcinoma); test: Cell viability analysis, tongue cancer SAS; type: cell-based, human; conditions: Homo sapiens, 72 h, read-out: The results of antibiotic drug inhibiting cancer cell lines (cell viability analysis), SAS
[10] = test system: LoVo (Colorectal Adenocarcinoma); test: Cell viability analysis, colon cancer LoVo; type: cell-based, human; conditions: Homo sapiens, LoVo, 72 h
[11] = test system: HL-60 (Acute Promyelocytic Leukemia); test: Cell viability analysis, leukemia HL-60; type: cell-based, human; conditions: Homo sapiens, HL-60, 72 h, read-out: cell viability (survival rate), HL-60, drug 10 μM, 72 hours, WST-1, OD450 nm
[12] = test system: A549 (Lung Adenocarcinoma); test: Cell viability analysis, lung cancer A549; type: cell-based, human; conditions: Homo sapiens, A549, 72 h
[13] = test system: HI650 (Lung Adenocarcinoma); test: Cell viability analysis, lung cancer HI650; type: cell-based, human; conditions: Homo sapiens, NCI-H1650, 72 h
[14] = test system: MKN-45 (Gastric Adenocarcinoma); test: Cell viability analysis, gastric cancer MKN-45; type: cell-based, human; conditions: Homo sapiens, MKN-45, 72 h
[15] = test system: MDA-MB-231 (Mammary Gland, Adenocarcinoma); test: Cell viability analysis, breast cancer MDA-MB-231; type: cell-based, human; conditions: Homo sapiens, MDA-MB-231, 72 h, read-out: The results of antibiotic drug inhibiting cancer cell lines (cell viability analysis), MDA-MB231
BxPC-3 = test: Cell viability analysis, pancreatic cancer BxPC-3; type: cell-based, human; conditions: Homo sapiens, BXPC-3, 72 h, read-out: The results of antibiotic drug inhibiting cancer cell lines (cell viability analysis), BxPC-3
[16] = test system: HCT116 (p53+) (Colorectal Carcinoma)
[17] = test system: HeLa (Cervix Adenocarcinoma); test: Cell viability analysis, cervical cancer HeLa; type: cell-based, human; conditions: Homo sapiens, HeLa, 72 h
[18] = test system: 786-O (Renal adenocarcinoma); test: Cell viability analysis, renal cancer 786-O; type: cell-based, human; conditions: Homo sapiens, 786-0, 72 h, read-out: The results of antibiotic drug inhibiting cancer cell lines (cell viability analysis), 786-O
cancer cell lines = test: Cell viability analysis (WST-1) on cancer cell lines; type: cell-based, human; conditions: drug 10 μM, 72 hours, WST-1; Table 3
[19] = test system: C-33A (Cervical carcinoma); test: Cell viability analysis, cervical cancer C-33A; type: cell-based, human; conditions: Homo sapiens, C-33-A, 72 h, read-out: The results of antibiotic drug inhibiting cancer cell lines (cell viability analysis), C-33A

Structure (SMILES): CN(C)CCC[C@@]1(c2ccc(F)cc2)OCc2cc(C#N)ccc21 [Escitalopram oxalate]
- viability at 10 µM [1]: 134%
- viability at 10 µM ([2]; read-out: The results of antibiotic drug inhibiting cancer cell lines (cell viability analysis), MCF-7, MCF-7, repeated experiment): 80.1%
- viability at 10 µM ([2]; read-out: cell viability (survival rate), MCF7, drug 10 μM, 72 hours, WST-1, OD450 nm): 97.4%
- viability at 10 µM (AsPC-1): 80.3%
- viability at 10 µM (TOV-21G): 117%
- viability at 10 µM (T24): 97.7%
- viability at 10 µM (U-2OS): 62.2%
- viability at 10 µM ([3]; read-out: The results of antibiotic drug inhibiting cancer cell lines (cell viability analysis), HepG2, HepG2, repeated experiment): 113%
- viability at 10 µM ([3]; read-out: cell viability (survival rate), HepG2, drug 10 μM, 72 hours, WST-1, OD450 nm): 94%
- viability at 10 µM ([4]; read-out: The results of antibiotic drug inhibiting cancer cell lines (cell viability analysis), TSGH-8301, TSGH-8301, repeated experiment): 135%
- viability at 10 µM ([4]; read-out: cell viability (survival rate), TSGH, drug 10 μM, 72 hours, WST-1, OD450 nm): 80.6%
- viability at 10 µM [5]: 102%
- viability at 10 µM [6]: 68%
- viability at 10 µM ([7]; read-out: The results of antibiotic drug inhibiting cancer cell lines (cell viability analysis), PC-3, PC-3, repeated experiment): 120%
- viability at 10 µM ([7]; read-out: cell viability (survival rate), PC3, drug 10 μM, 72 hours, WST-1, OD450 nm): 79.5%
- viability at 10 µM ([8]; read-out: The results of antibiotic drug inhibiting cancer cell lines (cell viability analysis), AGS, repeated experiment): 145%
- viability at 10 µM ([8]; read-out: cell viability (survival rate), AGS, drug 10 μM, 72 hours, WST-1, OD450 nm): 62.3%
- viability at 10 µM [9]: 65.3%
- viability at 10 µM ([10]; read-out: The results of antibiotic drug inhibiting cancer cell lines (cell viability analysis), LoVo, repeated experiment): 89.3%
- viability at 10 µM ([10]; read-out: cell viability (survival rate), LoVo, drug 10 μM, 72 hours, WST-1, OD450 nm): 91.6%
- viability at 10 µM [11]: 92.7%
- viability at 10 µM ([12]; read-out: The results of antibiotic drug inhibiting cancer cell lines (cell viability analysis), A549, A549, repeated experiment): 103%
- viability at 10 µM ([12]; read-out: cell viability (survival rate), A549, drug 10 μM, 72 hours, WST-1, OD450 nm): 122%
- viability at 10 µM ([13]; read-out: The results of antibiotic drug inhibiting cancer cell lines (cell viability analysis), H1650, H1650, repeated experiment): 92.1%
- viability at 10 µM ([13]; read-out: cell viability (survival rate), H1650, drug 10 μM, 72 hours, WST-1, OD450 nm): 80.4%
- viability at 10 µM ([14]; read-out: The results of antibiotic drug inhibiting cancer cell lines (cell viability analysis), MKN-45, MKN-45, repeated experiment): 127%
- viability at 10 µM ([14]; read-out: cell viability (survival rate), MKN-45, drug 10 μM, 72 hours, WST-1, OD450 nm): 116%
- viability at 10 µM [15]: 111%
- viability at 10 µM (BxPC-3): 68.1%
- viability [16]: 123%
- viability at 10 µM ([17]; read-out: The results of antibiotic drug inhibiting cancer cell lines (cell viability analysis), HeLa, repeated experiment): 126%
- viability at 10 µM ([17]; read-out: cell viability (survival rate), HeLa, drug 10 μM, 72 hours, WST-1, OD450 nm): 95%
- viability at 10 µM [18]: 88.8%
- inhibition effect on different cancer cell lines (cancer cell lines): significant inhibition effect
- viability at 10 µM [19]: 110%
